Laboratory results reported in patent publication US11447480B2, “Compound exhibiting enteropeptidase inhibitory activity” (LG CHEM, LTD., priority 2018, dated 2022).

Target: Recombinant Human Enteropeptidase (Homo sapiens (Human), UniProt P98073)
Test: Enteropeptidase Inhibition Assay
Assay type: biochemical
Settings: substrate Acetyl-Asp-Asp-Asp-Asp-Lys-AFC 30 μM, 30° C., 1 hour; Ki calculated from IC50 using Cheng-Prusoff equation
Description: Enteropeptidase Inhibition Assay
The inhibitory activity of the enteropeptidase inhibitor synthesized using the purified Recombinant Human Enteropeptidase and the substrate Acetyl-Asp-Asp-Asp-Asp-Lys-AFC (BioVision) was measured. 7.2 ng/mL of Enteropeptidase diluted with a buffer (20 mM Tris, 50 mM NaCl, pH 7.5) in a 96 well plate (Costar), 30 μM of Acetyl-Asp-Asp-Asp-Asp-Lys-AFC, several concentrations of Enteropeptidase inhibitors (1% DMSO concentration) were dispensed such that a final volume was 100 μL, and then the enzyme reaction was carried out at 30° C. for 1 hour. At this time, 1% DMSO, a substrate and Enteropeptidase instead of the compound were dispensed onto positive control wells, and 1% DMSO and a substrate were dispensed onto negative control wells. The enzyme reaction was […] using an excitation wavelength of 380 nm and an emission wavelength of 500 nm in a fluorescence spectrometer, and then the rate of increase in fluorescence (milli-units per min) between 20 and 60 minutes was measured.
The fluorescence measurement values reduced by the inhibitor diluted at each concentration were converted into relative values % of the positive control group (100% reactivity) and the negative control group (0% reactivity), and used to calculate IC50 values. IC50 is the concentration of the inhibitor that inhibits the enzyme activity by 50%, and was calculated using PRISM (GraphPad). Ki values were calculated from the IC50 values using Cheng-Prusoff equation.

Chain of Recombinant Human Enteropeptidase (P98073 whole entry): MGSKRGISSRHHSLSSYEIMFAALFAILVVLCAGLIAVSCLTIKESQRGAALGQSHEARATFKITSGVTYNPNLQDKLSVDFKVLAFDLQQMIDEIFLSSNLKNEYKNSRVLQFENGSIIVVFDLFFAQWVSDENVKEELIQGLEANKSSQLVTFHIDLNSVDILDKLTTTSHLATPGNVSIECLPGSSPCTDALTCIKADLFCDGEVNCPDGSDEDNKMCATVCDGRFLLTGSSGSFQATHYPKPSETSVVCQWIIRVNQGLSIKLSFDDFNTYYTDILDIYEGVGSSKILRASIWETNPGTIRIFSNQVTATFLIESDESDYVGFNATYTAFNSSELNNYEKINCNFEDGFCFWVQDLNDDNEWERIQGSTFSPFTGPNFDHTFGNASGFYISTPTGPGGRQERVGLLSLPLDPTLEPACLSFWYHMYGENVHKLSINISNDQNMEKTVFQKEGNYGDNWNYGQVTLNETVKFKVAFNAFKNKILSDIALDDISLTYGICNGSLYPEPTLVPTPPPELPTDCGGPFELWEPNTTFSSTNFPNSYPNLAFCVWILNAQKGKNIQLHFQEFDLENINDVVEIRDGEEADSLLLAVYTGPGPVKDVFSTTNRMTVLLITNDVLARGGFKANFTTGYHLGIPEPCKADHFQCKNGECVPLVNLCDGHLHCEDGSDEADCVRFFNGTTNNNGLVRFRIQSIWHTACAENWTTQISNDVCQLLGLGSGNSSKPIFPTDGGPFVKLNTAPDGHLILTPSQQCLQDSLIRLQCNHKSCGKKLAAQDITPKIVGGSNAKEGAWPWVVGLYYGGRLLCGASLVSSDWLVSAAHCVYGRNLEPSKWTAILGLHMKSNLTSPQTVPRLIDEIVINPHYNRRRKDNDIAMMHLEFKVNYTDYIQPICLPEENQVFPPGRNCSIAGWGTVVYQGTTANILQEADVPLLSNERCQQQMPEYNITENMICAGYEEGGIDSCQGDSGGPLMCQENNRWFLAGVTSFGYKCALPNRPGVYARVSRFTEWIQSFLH

| SMILES | Ki |
| --- | --- |
| N=C(N)c1ccc(OC(=O)c2cnc(N3CCC(C(=O)O)CC3)s2)cc1 [Example 2, 1-(5-((4-Carbamimidoylphenoxy)carbonyl)thiazol-2-yl)piperidine-4-carboxylic Acid] | 4.9 nM |
| COC(=O)C1CCN(c2ncc(C(=O)Oc3ccc(C(=N)N)cc3)s2)CC1 [Example 3, 4-Carbamimidoylphenyl 2-(4-(methoxycarbonyl)piperidin-1-yl)thiazole-5-carboxylate] | 17 nM |
| COC(=O)C1CCN(c2ncc(C(=O)Oc3ccc(C(=N)N)cc3F)s2)CC1 [Example 4, 4-Carbamimidoyl-2-fluorophenyl 2-(4-(methoxycarbonyl)piperidin-1-yl)thiazole-5-carboxylate] | 0.92 nM |
| COC(=O)C1CCN(c2ncc(C(=O)Oc3ccc(NC(=N)N)cc3)s2)CC1 [Example 5, 4-Guanidinophenyl 2-(4-(methoxycarbonyl)piperidin-1-yl)thiazole-5-carboxylate] | 510 nM |
| N=C(N)Nc1ccc(OC(=O)c2cnc(N3CCC(C(=O)O)CC3)s2)cc1 [Example 6, 1-(5-((4-Guanidinophenoxy)carbonyl)thiazol-2-yl)piperidine-4-carboxylic Acid] | 220 nM |
| N=C(N)c1ccc(OC(=O)c2cnc(N3CCC(C(=O)O)CC3)s2)c(F)c1 [Example 7, 1-(5-((4-Carbamimidoyl-2-fluorophenoxy)carbonyl)thiazol-2-yl)piperidine-4-carboxylic Acid] | 0.6 nM |
| COC(=O)CCN(C)c1ncc(C(=O)Oc2ccc(C(=N)N)cc2)s1 [Example 8, 4-Carbamimidoylphenyl 2-((3-methoxy-3-oxopropyl)(methyl)amino)thiazole-5-carboxylate] | 28 nM |
| CN(CCC(=O)O)c1ncc(C(=O)Oc2ccc(C(=N)N)cc2)s1 [Example 9] | 28 nM |
| COC(=O)CCNc1ncc(C(=O)Oc2ccc(C(=N)N)cc2)s1 [Example 10, 4-Carbamimidoylphenyl 2-((3-methoxy-3-oxopropyl)amino)thiazole-5-carboxylate] | 11 nM |
| COC(=O)CCCN(C)c1ncc(C(=O)Oc2ccc(C(=N)N)cc2)s1 [Example 11, 4-Carbamimidoylphenyl 2-((4-methoxy-4-oxobutyl)(methyl)amino)thiazole-5-carboxylate] | 21 nM |
| CCN(CCC(=O)OC)c1ncc(C(=O)Oc2ccc(C(=N)N)cc2)s1 [Example 12, 4-Carbamimidoylphenyl 2-(ethyl(3-methoxy-3-oxopropyl)amino)thiazole-5-carboxylate] | 9.7 nM |
| N=C(N)c1ccc(OC(=O)c2cnc(NCCC(=O)O)s2)cc1 [Example 13] | 4.8 nM |
| CCN(CCC(=O)O)c1ncc(C(=O)Oc2ccc(C(=N)N)cc2)s1 [Example 14] | 5.1 nM |
| CN(CCCC(=O)O)c1ncc(C(=O)Oc2ccc(C(=N)N)cc2)s1 [Example 15] | 5.7 nM |
| COC(=O)C1CCN(c2ncc(C(=O)Oc3ccc(C(=N)N)cc3)s2)C1 (stereo not shown) [Example 16, 4-Carbamimidoylphenyl 2-(3-(methoxycarbonyl)pyrrolidin-1-yl)thiazole-5-carboxylate] | 19 nM |
| N=C(N)c1ccc(OC(=O)c2cnc(N3CCC(C(=O)O)C3)s2)cc1 (stereo not shown) [Example 17, 1-(5-((4-Carbamimidoylphenoxy)carbonyl)thiazol-2-yl)pyrrolidine-3-carboxylic Acid] | 5.4 nM |
| COC(=O)C(C)(C)CN(C)c1ncc(C(=O)Oc2ccc(C(=N)N)cc2)s1 [Example 18, 4-Carbamimidoylphenyl 2-((3-methoxy-2,2-dimethyl-3-oxopropyl)(methyl)amino)thiazole-5-carboxylate] | 8.9 nM |
| CN(CC(C)(C)C(=O)O)c1ncc(C(=O)Oc2ccc(C(=N)N)cc2)s1 [Example 19] | 4.8 nM |
| CCN(CCC(=O)OC)c1ncc(C(=O)Oc2ccc(C(=N)N)cc2F)s1 [Example 20, 4-Carbamimidoyl-2-fluorophenyl 2-(ethyl(3-methoxy-3-oxopropyl)amino) thiazole-5-carboxylate] | 2.5 nM |
| COC(=O)CCCN(C)c1ncc(C(=O)Oc2ccc(C(=N)N)cc2F)s1 [Example 21, 4-Carbamimidoyl-2-fluorophenyl 2-((4-methoxy-4-oxobutyl)(methyl)amino)thiazole-5-carboxylate] | 3 nM |

| SMILES | Ki |
| --- | --- |
| CN(CCCC(=O)O)c1ncc(C(=O)Oc2ccc(C(=N)N)cc2F)s1 [Example 22, 4-((5-((4-Carbamimidoyl-2-fluorophenoxy)carbonyl)thiazol-2-yl)(methyl)amino)butanoic Acid] | 0.57 nM |
| COC(=O)C(C)(C)CNc1ncc(C(=O)Oc2ccc(C(=N)N)cc2)s1 [Example 24, 4-Carbamimidoylphenyl 2-((3-methoxy-2,2-dimethyl-3-oxopropyl)amino)thiazole-5-carboxylate] | 8.9 nM |
| N=C(N)c1ccc(OC(=O)c2cnc(N3CCC(C(=O)N[C@@H](CC(=O)O)C(=O)O)CC3)s2)cc1 [Example 25] | 4.7 nM |
| N=C(N)c1ccc(OC(=O)c2cnc(N3CCC(C(=O)Nc4ccccc4)CC3)s2)cc1 [Example 27, 4-Carbamimidoylphenyl 2-(4-(phenylcarbamoyl)piperidin-1-yl)thiazole-5-carboxylate] | 12 nM |
| N=C(N)c1ccc(OC(=O)c2cnc(N3CCC(NC(=O)c4ccccc4)CC3)s2)cc1 [Example 28, 4-Carbamimidoylphenyl 2-(4-benzamidopiperidin-1-yl)thiazole-5-carboxylate] | 6.5 nM |
| COC(=O)CNC(=O)C1CCN(c2ncc(C(=O)Oc3ccc(C(=N)N)cc3)s2)CC1 [Example 29, 4-Carbamimidoylphenyl 2-(4-((2-methoxy-2-oxoethyl)carbamoyl)piperidin-1-yl)thiazole-5-carboxylate] | 18 nM |
| COC(=O)CCNC(=O)C1CCN(c2ncc(C(=O)Oc3ccc(C(=N)N)cc3)s2)CC1 [Example 30, 4-Carbamimidoylphenyl 2-(4-((3-methoxy-3-oxopropyl)carbamoyl)piperidin-1-yl)thiazole-5-carboxylate] | 18 nM |
| COC(=O)CCCN(C)C(=O)C1CCN(c2ncc(C(=O)Oc3ccc(C(=N)N)cc3)s2)CC1 [Example 31, 4-Carbamimidoylphenyl 2-(4-((4-methoxy-4-oxobutyl)(methyl)carbamoyl)piperidin-1-yl)thiazole-5-carboxylate] | 17 nM |
| COC(=O)C(C)(C)CNC(=O)C1CCN(c2ncc(C(=O)Oc3ccc(C(=N)N)cc3)s2)CC1 [Example 32, 4-Carbamimidoylphenyl 2-(4-((3-methoxy-2,2-dimethyl-3-oxopropyl)carbamoyl)piperidin-1-yl)thiazole-5-carboxylate] | 18 nM |
| N=C(N)c1ccc(OC(=O)c2cnc(N3CCC(C(=O)NCC(=O)O)CC3)s2)cc1 [Example 33] | 8.2 nM |
| N=C(N)c1ccc(OC(=O)c2cnc(N3CCC(C(=O)NCCC(=O)O)CC3)s2)cc1 [Example 34] | 8.9 nM |
| CN(CCCC(=O)O)C(=O)C1CCN(c2ncc(C(=O)Oc3ccc(C(=N)N)cc3)s2)CC1 [Example 35] | 9.7 nM |
| CC(C)(CNC(=O)C1CCN(c2ncc(C(=O)Oc3ccc(C(=N)N)cc3)s2)CC1)C(=O)O [Example 36] | 9.7 nM |
| COC(=O)CNC(=O)C1CCN(c2ncc(C(=O)Oc3ccc(C(=N)N)cc3F)s2)CC1 [Example 37, 4-Carbamimidoyl-2-fluorophenyl 2-(4-((2-methoxy-2-oxoethyl)carbamoyl)piperidin-1-yl)thiazole-5-carboxylate] | 1.8 nM |
| COC(=O)CCNC(=O)C1CCN(c2ncc(C(=O)Oc3ccc(C(=N)N)cc3F)s2)CC1 [Example 38, 4-Carbamimidoyl-2-fluorophenyl 2-(4-((3-methoxy-3-oxopropyl)carbamoyl)piperidin-1-yl)thiazole-5-carboxylate] | 2.6 nM |
| COC(=O)C(C)(C)CNC(=O)C1CCN(c2ncc(C(=O)Oc3ccc(C(=N)N)cc3F)s2)CC1 [Example 39, 4-Carbamimidoyl-2-fluorophenyl 2-(4-((3-methoxy-2,2-dimethyl-3-oxopropyl)carbamoyl)piperidin-1-yl)thiazole-5-carboxylate] | 2.5 nM |
| COc1ccc(NC(=O)C2CCN(c3ncc(C(=O)Oc4ccc(C(=N)N)cc4)s3)CC2)cc1 [Example 40, 4-carbamimidoylphenyl 2-(4-((4-methoxyphenyl)carbamoyl)piperidin-1-yl)thiazole-5-carboxylate] | 9.7 nM |
| COC(=O)CCCN(C)C(=O)C1CCN(c2ncc(C(=O)Oc3ccc(C(=N)N)cc3F)s2)CC1 [Example 41, 4-Carbamimidoyl-2-fluorophenyl 2-(4-((4-methoxy-4-oxobutyl)(methyl)carbamoyl)piperidin-1-yl)thiazole-5-carboxylate] | 1.8 nM |
| N=C(N)c1ccc(OC(=O)c2cnc(N3CCC(C(=O)NCC(=O)O)CC3)s2)c(F)c1 [Example 42, (1-(5-((4-Carbamimidoyl-2-fluorophenoxy)carbonyl)thiazol-2-yl)piperidine-4-carbonyl)glycine] | 1 nM |
| N=C(N)c1ccc(OC(=O)c2cnc(N3CCC(C(=O)NCCC(=O)O)CC3)s2)c(F)c1 [Example 43, 3-(1-(5-((4-Carbamimidoyl-2-fluorophenoxy)carbonyl)thiazol-2-yl)piperidine-4-carboxamido)propanoic Acid] | 1.7 nM |
